# Measured values: PubChem BioAssay (NCI)
#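 A five-concentration, 48-hour dose response in 96-well plates underlies each endpoint, interpolated linearly between surrounding concentrations. Abbreviation: GI50, concentration required for 50% inhibition of growth. Definition used: TGI = concentration required for complete inhibition of growth.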
# Legend:
# Test in all cases: NCI anticancer screen, dose series, 48 h
# SK-MEL-28 melanoma = test system: SK-MEL-28 melanoma
# SNB-75 CNS = test system: SNB-75 CNS
# UACC-62 melanoma = test system: UACC-62 melanoma
# OVCAR-4 ovarian = test system: OVCAR-4 ovarian
# OVCAR-8 ovarian = test system: OVCAR-8 ovarian
# T-47D breast = test system: T-47D breast
# BT-549 breast = test system: BT-549 breast
# HCT-116 colon = test system: HCT-116 colon
# KM12 colon = test system: KM12 colon
# RPMI-8226 leukemia = test system: RPMI-8226 leukemia
# PC-3 prostate = test system: PC-3 prostate
# SK-OV-3 ovarian = test system: SK-OV-3 ovarian
# U251 CNS = test system: U251 CNS
# HCC-2998 colon = test system: HCC-2998 colon
# OVCAR-5 ovarian = test system: OVCAR-5 ovarian
# DU-145 prostate = test system: DU-145 prostate
# UO-31 renal = test system: UO-31 renal
# SK-MEL-5 melanoma = test system: SK-MEL-5 melanoma
# CCRF-CEM leukemia = test system: CCRF-CEM leukemia
# NCI-H460 lung = test system: NCI-H460 lung
# M14 melanoma = test system: M14 melanoma
# MDA-MB-231 breast = test system: MDA-MB-231 breast
# SF-295 CNS = test system: SF-295 CNS
# A549 NSCLC = test system: A549 NSCLC
# HOP-62 NSCLC = test system: HOP-62 NSCLC
# COLO 205 colon = test system: COLO 205 colon
# SK-MEL-2 melanoma = test system: SK-MEL-2 melanoma
# HS 578T breast = test system: HS 578T breast
# EKVX NSCLC = test system: EKVX NSCLC
# MOLT-4 leukemia = test system: MOLT-4 leukemia
# UACC-257 melanoma = test system: UACC-257 melanoma
# SF-539 CNS = test system: SF-539 CNS
# RXF 393 renal = test system: RXF 393 renal
# 786-0 renal = test system: 786-0 renal
# NCI-H23 lung = test system: NCI-H23 lung
# OVCAR-3 ovarian = test system: OVCAR-3 ovarian
# HOP-92 NSCLC = test system: HOP-92 NSCLC
# SN12C renal = test system: SN12C renal
# MCF7 breast = test system: MCF7 breast
# LOX IMVI melanoma = test system: LOX IMVI melanoma
# CAKI-1 renal = test system: CAKI-1 renal
# TK-10 renal = test system: TK-10 renal
# HL-60(TB) leukemia = test system: HL-60(TB) leukemia
# MDA-MB-435 = test system: MDA-MB-435
# SF-268 CNS = test system: SF-268 CNS
# MALME-3M melanoma = test system: MALME-3M melanoma
# ACHN renal = test system: ACHN renal
# SNB-19 CNS = test system: SNB-19 CNS
# NCI-H226 lung = test system: NCI-H226 lung
# IGROV1 ovarian = test system: IGROV1 ovarian
# A498 renal = test system: A498 renal
# NCI-H522 lung = test system: NCI-H522 lung
# SW-620 colon = test system: SW-620 colon
# HCT-15 colon = test system: HCT-15 colon
# NCI/ADR-RES ovarian = test system: NCI/ADR-RES ovarian
structure (smiles),measurement,setting,value
COc1ccc(C(=O)NNc2nc(Cl)nc(N3CCN(C(c4ccccc4)c4ccccc4)CC3)n2)cc1,GI50,SK-MEL-28 melanoma,1.84 µM
same,TGI,SK-MEL-28 melanoma,3.76 µM
same,GI50,SNB-75 CNS,1.65 µM
same,TGI,SNB-75 CNS,3.49 µM
same,GI50,UACC-62 melanoma,1.82 µM
same,TGI,UACC-62 melanoma,3.54 µM
same,GI50,OVCAR-4 ovarian,1.81 µM
same,TGI,OVCAR-4 ovarian,3.56 µM
same,GI50,OVCAR-8 ovarian,1.89 µM
same,TGI,OVCAR-8 ovarian,4.36 µM
same,GI50,T-47D breast,64 µM
same,TGI,T-47D breast,> 100 µM
same,GI50,BT-549 breast,1.74 µM
same,TGI,BT-549 breast,3.47 µM
same,GI50,HCT-116 colon,1.74 µM
same,TGI,HCT-116 colon,3.22 µM
same,GI50,KM12 colon,> 100 µM
same,TGI,KM12 colon,> 100 µM
same,GI50,RPMI-8226 leukemia,33.7 µM
same,TGI,RPMI-8226 leukemia,> 100 µM
same,GI50,PC-3 prostate,1.74 µM
same,TGI,PC-3 prostate,3.59 µM
same,GI50,SK-OV-3 ovarian,11.9 µM
same,TGI,SK-OV-3 ovarian,25.8 µM
same,GI50,U251 CNS,1.8 µM
same,TGI,U251 CNS,3.34 µM
same,GI50,HCC-2998 colon,1.49 µM
same,TGI,HCC-2998 colon,2.89 µM
same,GI50,OVCAR-5 ovarian,13.2 µM
same,TGI,OVCAR-5 ovarian,33.2 µM
same,GI50,DU-145 prostate,3.93 µM
same,TGI,DU-145 prostate,13.6 µM
same,GI50,UO-31 renal,3.2 µM
same,TGI,UO-31 renal,18.5 µM
same,GI50,SK-MEL-5 melanoma,16.7 µM
same,TGI,SK-MEL-5 melanoma,31.7 µM
same,GI50,CCRF-CEM leukemia,1.25 µM
same,TGI,CCRF-CEM leukemia,4.12 µM
same,GI50,NCI-H460 lung,3.52 µM
same,TGI,NCI-H460 lung,11.9 µM
same,GI50,M14 melanoma,1.75 µM
same,TGI,M14 melanoma,3.58 µM
same,GI50,MDA-MB-231 breast,1.94 µM
same,TGI,MDA-MB-231 breast,3.68 µM
same,GI50,SF-295 CNS,16 µM
same,TGI,SF-295 CNS,30.6 µM
same,GI50,A549 NSCLC,17.9 µM
same,TGI,A549 NSCLC,39.1 µM
same,GI50,HOP-62 NSCLC,2.97 µM
same,TGI,HOP-62 NSCLC,10.7 µM
same,GI50,COLO 205 colon,3.21 µM
same,TGI,COLO 205 colon,13.4 µM
same,GI50,SK-MEL-2 melanoma,2.14 µM
same,TGI,SK-MEL-2 melanoma,4.91 µM
same,GI50,HS 578T breast,1.95 µM
same,TGI,HS 578T breast,4.76 µM
same,GI50,EKVX NSCLC,3.43 µM
same,TGI,EKVX NSCLC,14.8 µM
same,GI50,MOLT-4 leukemia,1.64 µM
same,TGI,MOLT-4 leukemia,5.15 µM
same,GI50,UACC-257 melanoma,2.84 µM
same,TGI,UACC-257 melanoma,9.06 µM
same,GI50,SF-539 CNS,1.73 µM
same,TGI,SF-539 CNS,3.21 µM
same,GI50,RXF 393 renal,1.83 µM
same,TGI,RXF 393 renal,3.84 µM
same,GI50,786-0 renal,3.37 µM
same,TGI,786-0 renal,12.9 µM
same,GI50,NCI-H23 lung,1.88 µM
same,TGI,NCI-H23 lung,4.02 µM
same,GI50,OVCAR-3 ovarian,1.89 µM
same,TGI,OVCAR-3 ovarian,3.45 µM
same,GI50,HOP-92 NSCLC,1.61 µM
same,TGI,HOP-92 NSCLC,3.55 µM
same,GI50,SN12C renal,1.71 µM
same,TGI,SN12C renal,3.19 µM
same,GI50,MCF7 breast,> 100 µM
same,TGI,MCF7 breast,> 100 µM
same,GI50,LOX IMVI melanoma,1.63 µM
same,TGI,LOX IMVI melanoma,3.05 µM
same,GI50,CAKI-1 renal,1.84 µM
same,TGI,CAKI-1 renal,3.48 µM
same,GI50,TK-10 renal,> 100 µM
same,TGI,TK-10 renal,> 100 µM
same,GI50,HL-60(TB) leukemia,2.54 µM
same,TGI,HL-60(TB) leukemia,10.5 µM
same,GI50,MDA-MB-435,3.58 µM
same,TGI,MDA-MB-435,13 µM
same,GI50,SF-268 CNS,2.01 µM
same,TGI,SF-268 CNS,4.31 µM
same,GI50,MALME-3M melanoma,1.84 µM
same,TGI,MALME-3M melanoma,3.64 µM
same,GI50,ACHN renal,1.76 µM
same,TGI,ACHN renal,3.16 µM
same,GI50,SNB-19 CNS,1.84 µM
same,TGI,SNB-19 CNS,3.54 µM
same,GI50,NCI-H226 lung,18.9 µM
same,TGI,NCI-H226 lung,45.1 µM
same,GI50,IGROV1 ovarian,1.67 µM
same,TGI,IGROV1 ovarian,3.11 µM
same,GI50,A498 renal,10.4 µM
same,TGI,A498 renal,23.2 µM
O=C(Nc1ccc(-c2nc(-c3cccc(OCCN4CCOCC4)c3)c(-c3ccnc(Br)c3)[nH]2)cc1)c1ccccc1,GI50,SK-MEL-28 melanoma,1.5 µM
same,TGI,SK-MEL-28 melanoma,3.94 µM
same,GI50,SNB-75 CNS,0.364 µM
same,TGI,SNB-75 CNS,2.76 µM
same,GI50,NCI-H522 lung,3.69 µM
same,TGI,NCI-H522 lung,> 100 µM
same,GI50,SW-620 colon,2.05 µM
same,TGI,SW-620 colon,6.38 µM
same,GI50,UACC-62 melanoma,1.91 µM
same,TGI,UACC-62 melanoma,6.19 µM
same,GI50,OVCAR-8 ovarian,3.96 µM
same,TGI,OVCAR-8 ovarian,> 100 µM
same,GI50,T-47D breast,2.22 µM
same,TGI,T-47D breast,> 100 µM
same,GI50,BT-549 breast,2.71 µM
same,TGI,BT-549 breast,> 100 µM
same,GI50,HCT-116 colon,2.58 µM
same,TGI,HCT-116 colon,> 100 µM
same,GI50,RPMI-8226 leukemia,0.407 µM
same,TGI,RPMI-8226 leukemia,2.47 µM
same,GI50,PC-3 prostate,2.36 µM
same,TGI,PC-3 prostate,> 100 µM
same,GI50,SK-OV-3 ovarian,2.15 µM
same,TGI,SK-OV-3 ovarian,4.79 µM
same,GI50,HCT-15 colon,0.72 µM
same,TGI,HCT-15 colon,3.2 µM
same,GI50,HCC-2998 colon,2.76 µM
same,TGI,HCC-2998 colon,> 100 µM
same,GI50,OVCAR-5 ovarian,3.73 µM
same,TGI,OVCAR-5 ovarian,> 100 µM
same,GI50,DU-145 prostate,6.74 µM
same,TGI,DU-145 prostate,> 100 µM
same,GI50,UO-31 renal,2 µM
same,TGI,UO-31 renal,5.58 µM
same,GI50,SK-MEL-5 melanoma,1.77 µM
same,TGI,SK-MEL-5 melanoma,3.21 µM
same,GI50,CCRF-CEM leukemia,2.18 µM
same,TGI,CCRF-CEM leukemia,> 100 µM
same,GI50,NCI-H460 lung,2.81 µM
same,TGI,NCI-H460 lung,9.3 µM
same,GI50,M14 melanoma,1.8 µM
same,TGI,M14 melanoma,4.36 µM
same,GI50,MDA-MB-231 breast,2.84 µM
same,TGI,MDA-MB-231 breast,> 100 µM
same,GI50,A549 NSCLC,2.25 µM
same,TGI,A549 NSCLC,> 100 µM
same,GI50,SK-MEL-2 melanoma,2.75 µM
same,TGI,SK-MEL-2 melanoma,> 100 µM
same,GI50,HS 578T breast,0.267 µM
same,TGI,HS 578T breast,0.885 µM
same,GI50,EKVX NSCLC,2.01 µM
same,TGI,EKVX NSCLC,6.97 µM
same,GI50,MOLT-4 leukemia,0.784 µM
same,TGI,MOLT-4 leukemia,> 100 µM
same,GI50,UACC-257 melanoma,2.23 µM
same,TGI,UACC-257 melanoma,6.36 µM
same,GI50,SF-539 CNS,1.23 µM
same,TGI,SF-539 CNS,3.71 µM
same,GI50,RXF 393 renal,0.309 µM
same,TGI,RXF 393 renal,1.12 µM
same,GI50,786-0 renal,0.741 µM
same,TGI,786-0 renal,2.39 µM
same,GI50,NCI-H23 lung,2.47 µM
same,TGI,NCI-H23 lung,8.78 µM
same,GI50,NCI/ADR-RES ovarian,5.2 µM
same,TGI,NCI/ADR-RES ovarian,> 100 µM
same,GI50,OVCAR-3 ovarian,4.27 µM
same,TGI,OVCAR-3 ovarian,> 100 µM
same,GI50,HOP-92 NSCLC,2.01 µM
same,TGI,HOP-92 NSCLC,8.16 µM
same,GI50,SN12C renal,6.94 µM
same,TGI,SN12C renal,> 100 µM
same,GI50,MCF7 breast,0.74 µM
same,TGI,MCF7 breast,3.14 µM
same,GI50,CAKI-1 renal,1.84 µM
same,TGI,CAKI-1 renal,5.27 µM
same,GI50,TK-10 renal,4.48 µM
same,TGI,TK-10 renal,> 100 µM
same,GI50,MDA-MB-435,1.69 µM
same,TGI,MDA-MB-435,3.76 µM
same,GI50,SF-268 CNS,3.82 µM
same,TGI,SF-268 CNS,> 100 µM
same,GI50,MALME-3M melanoma,1.55 µM
same,TGI,MALME-3M melanoma,3.85 µM
same,GI50,ACHN renal,3.55 µM
same,TGI,ACHN renal,> 100 µM
same,GI50,SNB-19 CNS,2.19 µM
same,TGI,SNB-19 CNS,9.07 µM
same,GI50,NCI-H226 lung,2.94 µM
same,TGI,NCI-H226 lung,> 100 µM
same,GI50,IGROV1 ovarian,4.61 µM
same,TGI,IGROV1 ovarian,> 100 µM
same,GI50,A498 renal,1.49 µM
same,TGI,A498 renal,3.96 µM
